US12103916B2, “Antifungal compounds” (University of Kentucky Research Foundation, priority 2016, dated 2024)
Like-named read-outs stand apart in the source and are kept apart here. Marks after values point to notes of the source that are not given here.

Assays:
[1] = test system: C. albicans ATCC MYA-2876(S); experiment: MIC determination, strain C; format: cell-based, Candida albicans; settings: Candida albicans
Experimental: (§1) The antifungal activity of our new azole compounds 1-9 and 24-41 was first evaluated against a panel of seven Candida albicans strains (A-G), three non-albicans Candida strains […], and three Aspergillus strains (K-M) in a concentration range of 0.03-31.2 μg/mL (Table 1). […] For all of our azole derivatives we report their MIC-0 values against C. albicans ATCC 10231 (strain A) and all Aspergillus strains (K-M), which correspond to complete growth inhibition of these fungi. […] The commercially available antifungals AmB, FLC, ITC, POS, and VOR were used as reference drugs for comparison. The MIC values presented for these five control drugs were either tested herein or correspond to our previously published data^5, 16 as indicated in Table 1.
(§2) Antifungal activity in the absence or presence of serum. The antifungal activity of the newly prepared alkylated piperazine/morpholine-azole hybrids 16-28, of intermediate 14 that we used to verify that only final compounds exert antifungal activity, as well as that of alkylated piperazine/morpholine derivatives 1-10 were first evaluated against a panel of seven C. albicans (ATCC 10231 (A), ATCC 64124(R) (B), ATCC MYA-2876(S) (C), ATCC 90819(R) (D), ATCC MYA-2310(S) (E), ATCC MYA-1237(R) (F), and ATCC MYA-1003(R) (G)), three non-albicans Candida (C. glabrata ATCC 2001 (H), C. krusei ATCC 6258 (I), and C. parapsilosis ATCC 22019 (J)), and three Aspergillus (A. flavus ATCC MYA-3631 (K), A. nidulans ATCC 38163 (L), and A. terreus ATCC MYA-3633 (M)) strains using a concentration range of 0.03-31.3 μg/mL (Table 2).
(§3) Commercially available antifungal agents such as AmB, CAS, FLC, and VOR were used as positive controls for comparison. […] It is important to note that all comparisons to follow will be done by using the MIC values reported in μg/mL as the data were collected that way. However, we also present in parentheses in Table 2 the corresponding values in micromolar.
(§4) We used the commercially available antifungal agents such as AmB, caspofungin (CAS), FLC, and VOR as positive controls for comparison. For derivatives 5-16 as well as the reference drugs AmB and CAS, we reported MIC-0 values, which correspond to no visible growth. […] In this manuscript, we performed all activity comparisons by using the MIC values reported in μg/mL (Note: the corresponding MIC values are also provided in μM into parentheses in Tables 1, 2, S1, and S2).

[2] = test system: Candida glabrata ATCC 2001; experiment: MIC determination, strain H; format: cell-based; settings: Nakaseomyces glabratus, ATCC2001
Experimental: as §1, §2, §3, §4

[3] = test system: Candida parapsilosis ATCC 22019; settings: Table 1; strain J; control azoles; previously reported (refs 5, 16); cited from earlier work
[4] = bulk form; cited from earlier work
[5] = test system: C. albicans ATCC 90819(R); experiment: MIC determination, strain D; format: cell-based, Candida albicans; settings: Candida albicans, ATCC90819
Experimental: as §1, §2, §3, §4

[6] = test system: Candida parapsilosis ATCC 22019; experiment: MIC determination, strain J; format: cell-based; settings: Lodderomyces parapsilosis, ATCC22019
Experimental: as §1, §2, §3, §4

C. albicans ATCC 64124 [7] = experiment: MIC determination, strain B; format: cell-based, Candida albicans; settings: Candida albicans, ATCC64124
Experimental: as §1, §2, §3, §4

[8] = test system: C. albicans ATCC MYA-2876(S); settings: Table 1; strain C; control azoles; previously reported (refs 5, 16); cited from earlier work
Candida krusei ATCC 6258 [9] = experiment: MIC determination, strain I; format: cell-based; settings: Pichia kudriavzevii, ATCC6258
Experimental: as §1, §2, §3, §4

[10] = test system: ergosterol biosynthetic pathway (sterol 14α-demethylase) in C. albicans ATCC 10231 (strain A); experiment: Sterol composition by GC-MS, strain A; format: cell-based, Candida albicans
Excerpt: (§5) FIG. 7A-FIG. 7H includes FIG. 7A. A simplified ergosterol biosynthetic pathway and products resulting from inhibition of ERG11. FIG. 7B-G. include GC-MS chromatograms of the sterols extracted from untreated and antifungals treated C. albicans strains. […] The peaks are for lanosterol (1), ergosterol (2), eburicol (3), 14-alpha-methyl ergosta 8,24(28)-dien-3-beta,6-alpha-diol (4), and unknown sterols (5 and 6). FIG. 7H is a table summarizing the percentage of each sterol from panels B-G.
FIG. 13A. A simplified ergosterol biosynthetic pathway and products resulting from inhibition of ERG11. FIG. 13B-FIG. 13F. GC-MS chromatograms of the sterols extracted from untreated and antifungal-treated C. albicans ATCC 10231 (strain A). […] The peaks in these chromatograms are for lanosterol (1), ergosterol (2), eburicol (3), 14α-methyl ergosta-8,24(28)-dien-3β,6α-diol (4), and three unknown sterols (5-7). FIG. 13G includes a table summarizing the percentage of each sterol from panels B-F.
(§6) No drug controls were also performed (FIGS. 7D and G).
Determination of sterol composition in c. albicans in the presence and absence of drugs. […] By using gas chromatography-mass spectrometry (GC-MS), we investigated the potential of the synthetic compounds to exert their antifungal activity by inhibiting the sterol 14α-demethylase enzyme of the ergosterol biosynthetic pathway (FIG. 13). […] A no drug control was also performed (FIG. 13A).
Since out of our compounds displaying antifungal activity only compound 8 caused membrane disruption of C. albicans ATCC 10231 (strain A) in the membrane permeabilization assay (section 2.6), we decided to explore by using gas chromatography-mass spectrometry (GC-MS) the effect of compounds 8 and 9 on sterol composition during ergosterol biosynthesis (the mechanism of action of other conventional azoles). […] We also used VOR at 0.12 μg/mL and no drug control for comparison.

[11] = test system: C. albicans ATCC MYA-2310(S); experiment: MIC determination, strain E; format: cell-based, Candida albicans; settings: Candida albicans
Experimental: as §1, §2, §3, §4

[12] = test system: Candida glabrata ATCC 2001; settings: Table 1; strain H; control azoles; previously reported (refs 5, 16); cited from earlier work
Candida krusei ATCC 6258 [13] = settings: Table 1; strain I; control azoles; previously reported (refs 5, 16); cited from earlier work
[14] = test system: C. albicans ATCC MYA-2310(S); settings: Table 1; strain E; control azoles; previously reported (refs 5, 16); cited from earlier work
[15] = test system: ergosterol biosynthetic pathway (sterol 14α-demethylase) in C. albicans ATCC 64124 (strain B); experiment: Sterol composition by GC-MS, strain B; format: cell-based, Candida albicans; settings: Ex.1 series, 1.95 μg/mL
Excerpt: as §5, §6

[16] = test system: Aspergillus flavus ATCC MYA-3631; settings: Table 1; strain K; control azoles; previously reported (refs 5, 16); cited from earlier work
[17] = test system: Aspergillus terreus ATCC MYA-3633; settings: Table 1; strain M; control azoles; previously reported (refs 5, 16); cited from earlier work
[18] = test system: C. albicans ATCC MYA-1003(R); settings: Table 1; strain G; control azoles; previously reported (refs 5, 16); cited from earlier work
[19] = test system: Aspergillus nidulans ATCC 38163; settings: Table 1; strain L; control azoles; previously reported (refs 5, 16); cited from earlier work
[20] = test system: C. albicans ATCC 90819(R); settings: Table 1; strain D; control azoles; previously reported (refs 5, 16); cited from earlier work
[21] = test system: Candida albicans ATCC 10231; settings: Table 1; strain A; control azoles FLC, ITC, POS, VOR; previously reported (refs 5, 16); cited from earlier work
C. albicans ATCC 64124 [22] = settings: Table 1; strain B; control azoles; previously reported (refs 5, 16); cited from earlier work
[23] = test system: C. albicans ATCC MYA-1237(R); settings: Table 1; strain F; control azoles; previously reported (refs 5, 16); cited from earlier work
[24] = read-out: MIC (MIC-2), in parentheses

OC(Cn1cncn1)(Cn1cncn1)c1ccc(F)cc1F [FLC, fluconazole]
MIC ([1]; read-out: MIC (MIC-2)): 15.6 µg/mL
MIC [1, 24]: 50.9 µM
MIC ([2]; read-out: MIC (MIC-2)): > 31.3 µg/mL
MIC [2, 24]: > 102 µM
MIC (MIC-2) [3]: 1.95^c μg/mL
solubility in organic solvents such as DMSO [4]: highly soluble
solubility in water [4]: only slightly soluble
MIC ([5]; read-out: MIC (MIC-2)): > 125 µg/mL
MIC [5, 24]: > 408 µM
MIC ([6]; read-out: MIC (MIC-2)): 1.95 µg/mL
MIC [6, 24]: 6.4 µM
MIC (C. albicans ATCC 64124 [7]; read-out: MIC (MIC-2)): > 125 µg/mL
MIC (C. albicans ATCC 64124 [7]; [24]): > 408 µM
MIC (MIC-2) [8]: 15.6^b μg/mL
MIC (Candida krusei ATCC 6258 [9]; read-out: MIC (MIC-2)): > 31.3 µg/mL
MIC (Candida krusei ATCC 6258 [9]; [24]): > 102 µM
ergosterol, percentage of sterols ([10]; Ex.1 series, 0.125 μg/mL): ~93%
ergosterol (2), percentage of sterols ([10]; Ex.2 series, FLC 1.95, VOR 0.12, 20 0.48, 26 0.975 μg/mL): 95.90%
MIC ([11]; read-out: MIC (MIC-2)): > 125 µg/mL
MIC [11, 24]: > 408 µM
MIC (MIC-2) [12]: >31.2^c μg/mL
MIC (MIC-2) (Candida krusei ATCC 6258 [13]): >31.2^c μg/mL
MIC (MIC-2) [14]: >125^b μg/mL
eburicol, percentage of sterols [15]: ~12%
ergosterol, percentage of sterols [15]: ~48%
lanosterol, percentage of sterols [15]: ~30%

CCC(C)n1ncn(-c2ccc(N3CCN(c4ccc(OCC5COC(Cn6cncn6)(c6ccc(Cl)cc6Cl)O5)cc4)CC3)cc2)c1=O (stereo not drawn) [ITC, itraconazole]
MIC (MIC-2) [16]: 0.48^c μg/mL
MIC (MIC-2) [17]: 0.975^c μg/mL
MIC (MIC-2) [3]: 0.12^c μg/mL
MIC (MIC-2) [18]: 31.2^b μg/mL
MIC (MIC-2) [19]: 0.195^b μg/mL
MIC (MIC-2) [8]: 7.8^b μg/mL
MIC (MIC-2) [12]: 7.8^c μg/mL
MIC (MIC-2) [20]: 31.2^b μg/mL
MIC (MIC-2) [21]: 0.5^b μg/mL
MIC (MIC-2) (Candida krusei ATCC 6258 [13]): 0.48^c μg/mL
MIC (MIC-2) [14]: 31.2^b μg/mL
MIC (MIC-2) (C. albicans ATCC 64124 [22]): >62.5^b μg/mL
MIC (MIC-2) [23]: 31.2^b μg/mL

CC[C@@H]([C@H](C)O)n1ncn(-c2ccc(N3CCN(c4ccc(OC[C@@H]5CO[C@@](Cn6cncn6)(c6ccc(F)cc6F)C5)cc4)CC3)cc2)c1=O [POS, posaconazole]
MIC (MIC-2) [16]: 0.24^c μg/mL
MIC (MIC-2) [17]: 0.48^c μg/mL
MIC (MIC-2) [3]: <0.03^c μg/mL
MIC (MIC-2) [18]: 15.6^b μg/mL
MIC (MIC-2) [19]: 0.195^b μg/mL
MIC (MIC-2) [8]: 7.8^b μg/mL
MIC (MIC-2) [12]: 0.12^c μg/mL
MIC (MIC-2) [21]: 0.5^b μg/mL
MIC (MIC-2) (Candida krusei ATCC 6258 [13]): 0.06^c μg/mL
MIC (MIC-2) [14]: 31.2^b μg/mL
MIC (MIC-2) (C. albicans ATCC 64124 [22]): >62.5^b μg/mL
MIC (MIC-2) [23]: 15.6^b μg/mL
